# Measurements from article PMC13130965, “An Integrated Approach Combining Regulatory Tests in tg(cyp19a1b:GFP) Zebrafish Embryos to Assess Toxicity, Developmental Effects, and Estrogenic Activity of Chemicals: A Case Study with Bisphenol A Substitutes” (Environmental Science & Technology, 2026).
# “And” between values parts separate entries of the source, which are not always exact repeats. Equal entries are not always repeated. Where two headings read alike, the source gives them in different places.
# What was measured:
# [1] = system: cyp19a1b:GFP (brain aromatase) in tg(cyp19a1b:GFP) zebrafish embryos; assay: EASZY assay (OECD TG 250): GFP induction; type: in vivo, zebrafish (Danio rerio); details: Danio rerio, 96 h
# Procedure: The tests were conducted according to OECD TG 250. Newly fertilized cyp19a1b-GFP eggs were transferred to glass crystallizing dishes and exposed for 96 h in a humidified climate chamber (27 ± 2 °C) under semistatic conditions with a total renewal of the test solutions each day. Each condition consisted of three crystallizing dishes, each containing 7 embryos and 15 mL of test medium. Embryos were exposed to a range of nonlethal concentrations of chemicals as determined previously based on the refined FET assays. The tested concentration ranges of bisphenols, along with a control with the same percentage of solvent alone, are summarized in Table S2. All exposure concentrations are reported as nominal. At the end of exposure, transgenic zebrafish embryos were collected for fluorescence imaging to quantify GFP intensity. At the end of the experiments, all living zebrafish embryos were euthanized as described above. […] ICI was added together with bisphenols from 0 to 4 dpf (days post fertilization). […] In all coexposure experiments, the final DMSO concentration was 0.02% (v/v).
# For fluorescence imaging, GFP fold induction was expressed as mean ± SEM, and values were compared to the DMSO control using one-way ANOVA followed by Dunnett’s posthoc test. […]
# hERβ [2] = system: hERβ; parameters: method as in Grimaldi et al.; details: HELN-hERβ; ref Grimaldi et al.; cited from earlier work
# Adult Zebrafish = details: ref Ren et al. (2017); cited from earlier work
# hERβ [3] = system: hERβ; parameters: method as in Pelch et al.; details: HepG2-hERβ, ref Pelch et al., cited from earlier work
# [4] = Refined Fish Embryo Acute Toxicity test (FET, OECD TG 236): mortality; type: in vivo, zebrafish (Danio rerio); details: tg(cyp19a1b:GFP), zebrafish, in vivo, LC50 (96h) experimental (FET test), nominal, brackets 95% CI
# Procedure: Exposures were carried out in presaturated 24-well plates containing one embryo per well in 2 mL of test solution. The exposure was performed under semistatic conditions, with daily renewal of the test solution. The concentration ranges tested, along with a control with the same percentage of solvent alone, are recapitulated in Table S1. All exposure concentrations are reported as nominal. During the time course of the refined FET tests, embryos were observed after 8 h (coagulation), 24 h (lack of somite formation and nondetachment of the tail), and 48, 72, and 96 h of exposure (nondetection of the heartbeat). […] Moreover, hatching rate and nonlethal developmental effects (i.e., yolk deformity, growth retardation, spontaneous movement, edema, blood tail circulation, heart rate, pigmentation, head and tail/spinal malformations, and hemorrhage) were monitored daily. Tail/spinal malformations included lordosis, kyphosis, scoliosis, and reduced tail length.
# This analysis considered all nonlethal developmental end points monitored in the refined FET assay (see above), except effects on hatching, pigmentation, spontaneous movement, and blood circulation. A teratogenic index (TI) was then calculated as the ratio LC50/EC50.
# Baseline toxicity and experimental FET LC50 values were used to calculate toxic ratios (TR = predicted baseline toxicity LC50/experimental FET LC50). Compounds with TR < 10 were considered as baseline toxicants.
# Zebrafish embryos = details: cited from earlier work; for LC50: read-out: LC50(96h)
# [5] = experimental value; ref Epi-Suite (US-EPA); cited from earlier work
# [6] = ref Adamovsky et al.; cited from earlier work
# [7] = system: Zebrafish embryos ERE-GFP-Casper; parameters: method as in Green et al. (2016); details: 120h exposure; ref Green et al. (2016); cited from earlier work
# zebrafish ERβ2 (zfERβ2) = zebrafish ERβ2 (zfERβ2) (Danio rerio, UniProt Q7ZU32); assay: ZELH-zfERβ2 luciferase reporter gene assay; type: cell-based; details: % of positive control E2 10 nM
# Sequence of zebrafish ERβ2 (zfERβ2) (Q7ZU32 1-553): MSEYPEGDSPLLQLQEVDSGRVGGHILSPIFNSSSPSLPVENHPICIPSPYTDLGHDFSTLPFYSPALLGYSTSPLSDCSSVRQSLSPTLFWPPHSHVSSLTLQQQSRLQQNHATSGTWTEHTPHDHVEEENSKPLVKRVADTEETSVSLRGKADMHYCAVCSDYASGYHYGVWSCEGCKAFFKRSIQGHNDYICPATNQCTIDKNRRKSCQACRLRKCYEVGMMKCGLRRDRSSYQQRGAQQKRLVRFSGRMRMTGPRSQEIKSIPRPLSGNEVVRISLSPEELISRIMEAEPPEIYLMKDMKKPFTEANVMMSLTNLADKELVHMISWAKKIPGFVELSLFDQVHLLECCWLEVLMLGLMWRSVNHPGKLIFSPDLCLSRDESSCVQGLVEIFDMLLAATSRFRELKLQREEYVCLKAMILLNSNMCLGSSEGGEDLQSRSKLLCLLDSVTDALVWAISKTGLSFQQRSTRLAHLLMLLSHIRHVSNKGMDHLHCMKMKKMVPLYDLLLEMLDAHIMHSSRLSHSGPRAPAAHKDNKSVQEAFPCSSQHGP
# Procedure: The ZELH-zfERs reporter cell line was previously established after a two-step stable transfection of the zebrafish hepatic cell line ZFL with the luciferase gene under the control of ERE (yielding the ZELH cell line that expresses no functional ER) and the zebrafish ER subtype β2 (yielding the ZELH-zfERβ2 cell line). Cells were cultured, exposed to chemicals for 72 h, and measured for luciferase activity exactly as previously described. , For each chemical, serial dilutions were prepared in DMSO and tested in three independent experiments. The final DMSO concentration in the culture medium was always 0.1% v/v. All tested concentrations refer to nominal concentrations.
# Fathead minnow = details: 4-days exposure, ref Corrales et al. (2017); cited from earlier work
# [8] = 72h exposure, ref Duan et al. (2008)
# [9] = 120h-exposure, ref Qiu et al. (2021)
# [10] = 150h exposure, ref Song et al. (2014)
# [11] = zebrafish embryos, ref Ren et al. (2017)
smiles,measurement,setting,value
"CC(C)(c1ccc(O)cc1)c1ccc(O)cc1 [BPA, 4-[2-(4-hydroxyphenyl)propan-2-yl] phenol]",minimal effective concentration,"[1]; read-out: EASZY LOEC (GFP induction), nominal",0.625 µg/mL
same,EC50,"[1]; read-out: EASZY relative EC50, nominal",0.98 µg/mL
same,EC50,hERβ [2],0.384 µM
same,maximal efficacy,hERβ [2],66%
same,LC50(24h),Adult Zebrafish,9.51 µg/mL
same,LC50(48h),Adult Zebrafish,9.31 µg/mL
same,LC50(72h),Adult Zebrafish,8.09 µg/mL
same,LC50(96h),Adult Zebrafish,8.09 µg/mL
same,EC50,hERβ [3]; NA = not active,0.35 µM
same,maximal efficacy,hERβ [3],97%
same,LC50 at 96 h,[4],14.1 µg/mL
same,mortality,"Zebrafish embryos; 100 µM (23 mg/L) at 72h, ref Björnsdotter et al. (2017)",100%
same,mortality,"Zebrafish embryos; 20 mg/L, 48h, ref Makarova et al. (2016)",65%
same,LC10(96h),"Zebrafish embryos; 4-days exposure, ref Blanc et al. (2019)",6.62 µg/mL
same,LC50(48h),"Zebrafish embryos; 4-days exposure, ref Tišler et al. (2016)",15.9 (13.8-18.3) mg/L
same,mortality,"Zebrafish embryos; 5-15 µM, ref McCormick et al. (2010)",4-8%
same,LC50(24h),Zebrafish embryos; [8],16.75 µg/mL
same,NOEC,Zebrafish embryos; [8],2 mg/L
same,"LOEC (body length, GnRH3 neurons, reproductive neuroendocrine-related genes and hormones)",Zebrafish embryos; [9],100 µg/L
same,"NOEC (body length, GnRH3 neurons, reproductive neuroendocrine-related genes and hormones)",Zebrafish embryos; [9],1 µg/L
same,LC50(144h),Zebrafish embryos; [10],7.5 µg/mL
same,LOAELs,Zebrafish embryos; [10],5 mg/L
same,NOEC (developmental toxicity),"Zebrafish embryos; Wildtype (AB/TL), 1-6 dpf static + 6-9 dpf semistatic, ref Catron et al. (2018; 2019)",11.5 µM
same,LC50(96h),"Zebrafish embryos; Zebrafish, 4-days exposure, ref Corrales et al. (2017)",12.8 µg/mL
same,scoliosis (% of embryos),"Zebrafish embryos; at 8.041 mg/L, 2-5 dpf exposure, ref Martínez et al. (2019)",16%
same,mortality,"Zebrafish embryos; at 25 mg/L, ref Duan et al. (2008)",100%
same,LC50,"Zebrafish embryos; 4-days exposure, ref Chow et al. (2013)",35 µM
same,LC50,"Zebrafish embryos; Wildtype AB, 96h-exposure, ref Arrokhman et al. (2023)",57.1 µM
same,delayed hatching EC50(96h),Zebrafish embryos; ref Chow et al. (2013),5.25 µg/mL
same,LC50(5dpf),Zebrafish embryos; ref McCormick et al. (2011),5 (±0.89) mg/L
same,LC50(28dpf),Zebrafish embryos; ref McCormick et al. (2011),1.8 µg/mL
same,LOAEL(5dpf),Zebrafish embryos; ref McCormick et al. (2011),1 mg/L
same,Edema EC50(48h),Zebrafish embryos; ref Tišler et al. (2016),13.9 (8.5-22.8) mg/L
same,Hatching inhibition EC50(72h),Zebrafish embryos; ref Tišler et al. (2016),4.0 µg/mL
same,Missing blood flow EC50(48h),Zebrafish embryos; ref Tišler et al. (2016),12.3 µg/mL
same,Pigmentation EC50(48h),Zebrafish embryos; ref Tišler et al. (2016),3.6 (2.5-5.3) mg/L
same,LC50 (96h) literature,"Zebrafish embryos; zebrafish embryos, 95% CI, ref Chow et al.",8.041 [7.846;8.24] mg/L
same,LC50 (96h) literature,"Zebrafish embryos; zebrafish embryos, 95% CI, ref Mu et al.",10.4 [9.44–11.58] mg/L
same,LC50 (96h) literature,"Zebrafish embryos; zebrafish embryos, parentheses SEM, ref Moreman et al.",12 (0.22) mg/L
same,LC50 (96h) literature,"Zebrafish embryos; zebrafish embryos, ref Arrokhman et al.",13 mg/L
same,LC50 (96h) literature,"Zebrafish embryos; zebrafish embryos, ref Blanc et al.",9.82 mg/L
same,LC50 (96h) literature,"Zebrafish embryos; zebrafish embryos, ref Gao et al.",11.69 mg/L
same,Body length LOEC,Zebrafish embryos; [11],4 mg/L
same,Body length NOEC,Zebrafish embryos; [11],2 mg/L
same,LC50 (96h) literature,"Zebrafish embryos; zebrafish embryos, ref Ren et al.",5.82 mg/L
same,Water solubility,[5],300 µg/mL
same,Log Kow,[6],3.32
same,EC50,[7],1.226 µg/mL
same,LOEC,[7],1000 µg/L and 4380.32 nM
same,maximal efficacy,zebrafish ERβ2 (zfERβ2),55%
same,LC50(96h),Fathead minnow,4.2 µg/mL
